Numbered stars: 1 amine (or outer) side, 2 acyl side, 3 side chain; on linkers, the order of the positions; unused ones are H or OH. Peptide text beside a SMILES is read from it. Suc = O=C(CCC(=O)[*:2])[*:1]
Assays:
Type in all cases: in vivo, Sprague-Dawley rats
[1] = tested on: urethane anesthetized rat; test: Cerebral blood perfusion by Laser Doppler Flowmetry; details: BQ788 1 μg/kg
Experimental: (§1) Male Sprague-Dawley rats weighing 323±4 grams (g) were anesthetized with urethane (ethyl carbamate, Sigma Aldrich, St. Louis, Mo.) dissolved in isotonic saline (0.9% NaCl, Hospira, Inc., Lake Forest, Ill.). The rats were administered a dose of 0.15 g per 100 g body weight via intraperitoneal (i.p.) injection.
Cerebral Perfusion: A burr hole was drilled into the rat skull about 2 millimeters (mm) to the left of midline. Cerebrovascular perfusion was measured via a fiber optic probe (PF407) applied to the surface of the rat brain. The probe was connected to a Periflux PF2b 4000 Laser Doppler Flowmetry unit (Perimed, Stockholm, Sweden).
(§2) The rats were randomly selected for various studies. Following surgery the rats were allowed to stabilize for 30 minutes and a 15 minutes baseline recording of all parameters (blood pressure, heart rate, cerebral blood flow, and renal blood flow) was obtained prior to the administration of the pretreatment followed by IRL-1620 (Suc-[Glu 9, Ala 11,15], American Peptide Co, Inc., Sunnyville, Calif.) or ET-1 (Ala 1,3,11,15, RBI Sigma, Natick, Mass.). BQ-788, a selective endothelin B antagonist, is the sodium salt of N-cis-2,6-dimethylpiperidinocarbonyl-L-gamma-methylleucyl-D-1-methoxycarbonyl triptophanyl-DNIe (see Proc. Natl. Acad. Sci. USA, 91, pp. 4892-4896 (1994)) BMS is BMS 182, 874, which is a selective endothelin A antagonist having a structure
(§3) Group 1: Animals (n=4) were pretreated with saline 15 minutes (min) prior to administration of IRL-1620 (5 μg/kg, i.v.).
(§4) Group 2: Animals (n=4) were pretreated with BMS (5 mg/kg, i.v.) 15 min prior to administration of IRL-1620 (5 μg/kg, i.v.).
(§5) Group 3: Animals (n=4) were pretreated with BMS (15 mg/kg, i.v.) 15 min prior to administration of IRL-1620 (5 μg/kg, i.v.).
(§6) Group 4: Animals (n=4) were pretreated with BQ788 (1 μg/kg, i.v.) 15 min prior to administration of IRL-1620 (5 μg/kg, i.v.).
(§7) Group 1: Animals (n=4) were pretreated with saline 15 min prior to administration of ET-1 (0.75 μg/kg, i.v.).
(§8) Group 2: Animals (n=4) were pretreated with BMS (5 mg/kg, i.v.) 15 min prior to administration of ET-1 (0.75 μg/kg, i.v.).
(§9) Group 3: Animals (n=4) were pretreated with BMS (15 mg/kg, i.v.) 15 min prior to administration of ET-1 (0.75 μg/kg, i.v.).
(§10) Group 4: Animals (n=4) were pretreated with BQ788 (1 μg/kg, i.v.) 15 min prior to administration of ET-1 (0.75 μg/kg, i.v.).
(§11) Blood pressure, heart rate, cerebral blood perfusion, and renal blood perfusion all were recorded for 2 hours following the final injection. Blood gases were analyzed prior to administration of any drugs, and at 60 and 120 min following administration of IRL-1620 or ET-1. At the end of each experiment, the animals were euthanized with an overdose of urethane i.v. In the figures, all data values are presented as mean±SEM. One-sample t-tests and one-way ANOVAs were used to test the differences within and between the groups. A P value of P<0.05 was considered significant.

[2] = tested on: urethane anesthetized rat; test: Heart rate recording; details: IRL-1620 5 μg/kg, i.v.; for heart rate: 1 μg/kg BQ788 pretreatment, mean±SEM, in bpm (unit assumed)
Experimental: as §1
(§12) Blood Pressure and Heart Rate: The femoral vein and artery were cannulated. The arterial cannula was connected to a Gould P23 ID pressure transducer for recording the blood pressure on a Grass P7D polygraph through a 7PI preamplifier. The heart rate was recorded through a 7P4B Grass tachograph, triggered from blood pressure signals. Drugs were administered via the venous cannula.
as §2, §3, §4, §5
Group 4: Animals (n=4) were pretreated with BQ788 (1 μg/kg, i.v.) 15 min prior to administration of IRL-1620 (5 μg/kg, i.v.). […]
as §11

[3] = tested on: urethane anesthetized rat; test: Renal blood perfusion by Laser Doppler Flowmetry; details: BMS 5 and 15 mg/kg, i.v., BQ788 1 μg/kg
Experimental: as §1
Renal Perfusion: The right kidney was dissected retroperitoneally. Renal perfusion was measured via a fiber optic probe (PF408) applied to the surface of the rat kidney. The probe was connected to a Periflux PF2b 4000 Laser Doppler Flowmetry unit (Perimed, Stockholm, Sweden).
as §2, §3, §4, §5, §6, §7, §8, §9, §10, §11

[4] = tested on: urethane anesthetized rat; test: Blood pressure / mean arterial pressure recording; details: BMS 5 and 15 mg/kg, i.v., BQ788 1 μg/kg
Experimental: as §1, §12, §2, §3, §4, §5, §6, §7, §8, §9, §10, §11

[5] = tested on: urethane anesthetized rat; test: Arterial blood gas analysis; details: IRL-1620 5 μg/kg, i.v., ET-1 0.75 μg/kg
Experimental: as §1
Blood Gas Analysis: Arterial blood gases were monitored to determine the effects on pH, pCO2, and pO2. Blood was drawn from the arteriole cannula and analyzed using a GEM Premier 3000 unit (Instrument Laboratory, Lexington, Mass.).
as §11

[6] = time 0 min (prior to any drugs)

CCCC[C@@H](NC(=O)[C@@H](Cc1cn(C(=O)OC)c2ccccc12)NC(=O)[C@H](CC(C)(C)C)NC(=O)N1[C@H](C)CCC[C@@H]1C)C(=O)O [BQ788, N-cis-2,6-dimethylpiperidinocarbonyl-L-gamma-methylleucyl-D-1-methoxycarbonyl triptophanyl-DNIe]
effect of pretreatment on the effect of ET-1 on cerebral blood flow ([1]; BMS 5 and 15 mg/kg, i.v., ET-1 0.75 μg/kg, FIG. 7): no significant change
effect of pretreatment on the effect of IRL-1620 on cerebral blood flow ([1]; i.v. 15 min prior to IRL-1620 5 μg/kg, FIG. 6): effectively blocked
heart rate ([2]; time 0 min): 344 ± 5
heart rate ([2]; time 1 min): 350 ± 6
heart rate ([2]; time 5 min): 345 ± 4
heart rate ([2]; time 10 min): 345 ± 4
heart rate ([2]; time 15 min): 347 ± 3
heart rate ([2]; time 30 min): 347 ± 4
heart rate ([2]; time 45 min): 350 ± 6
heart rate ([2]; time 60 min): 351 ± 9
heart rate ([2]; time 90 min): 351 ± 13
heart rate ([2]; time 120 min): 353 ± 13
effect of pretreatment on the effect of IRL-1620 on heart rate (Table 1) ([2]; BMS 5 and 15 mg/kg, BQ788): effectively blocked
effect of pretreatment on the effect of ET-1 on renal blood flow ([3]; ET-1 0.75 μg/kg, FIG. 10): No pretreatment significantly altered
effect of pretreatment on the effect of IRL-1620 on renal blood flow ([3]; IRL-1620 5 μg/kg, FIG. 9): effectively blocked
effect of pretreatment on the effect of ET-1 on mean arterial pressure ([4]; ET-1 0.75 μg/kg, FIG. 13): failed to alter
effect of pretreatment on the effect of IRL-1620 on mean arterial pressure ([4]; IRL-1620 5 μg/kg, FIG. 12): effectively blocked

CC[C@H](C)[C@H](NC(=O)[C@H](CC(=O)O)NC(=O)[C@H](CC(C)C)NC(=O)[C@H](Cc1c[nH]cn1)NC(=O)[C@H](C)NC(=O)[C@H](Cc1ccccc1)NC(=O)[C@H](Cc1ccc(O)cc1)NC(=O)[C@@H](NC(=O)[C@H](C)NC(=O)[C@H](CCC(=O)O)NC(=O)[C@H](CCC(=O)O)NC(=O)[C@H](CC(=O)O)NC(=O)CCC(=O)O)C(C)C)C(=O)N[C@H](C(=O)N[C@@H](Cc1c[nH]c2ccccc12)C(=O)O)[C@@H](C)CC [IRL-1620, N-Succinyl-[Glu^9, Ala^11,15]-Endothelin 1 fragment 8-21] (Suc-DEEAVYFAHLDIIW-OH)
effect on arterial blood gases (text to Table 2) [5]: Neither IRL-1620 nor ET-1 significantly affected blood gases
arterial blood pCO2 [5, 6]: 42 ± 2
arterial blood pH [5, 6]: 7.32 ± 0.01
arterial blood pO2 [5, 6]: 103 ± 3
arterial blood pCO2 ([5]; time 60 min): 46 ± 6
arterial blood pH ([5]; time 60 min): 7.27 ± 0.01
arterial blood pO2 ([5]; time 60 min): 99 ± 9
arterial blood pCO2 ([5]; time 120 min): 32 ± 3
arterial blood pH ([5]; time 120 min): 7.29 ± 0.01
arterial blood pO2 ([5]; time 120 min): 113 ± 6
